{
  "source": "paper PMC4481117",
  "about": "(Molecular Pain, 2015)",
  "key": {"[1]": {"tested_on": "mouse peritoneal macrophages", "details": "cited from earlier work", "text": "Apart from their effects on κ-opioid receptors on neurons, Dyn A exerts numerous effects on leukocytes, particularly myeloid cells. […] Similar to other cationic peptides, Dyn A can exert some effects essential for host defense."}, "[2]": {"tested_on": "I-less form of Mac-1", "assay": "Adhesion of HEK293 cells expressing the I-less form of Mac-1", "format": "cell-based, Human", "details": "peptide immobilized at 10 μM, 30 min at 37 °C", "experimental": "Fig. 3 Adhesion of Mac-1-expressing cells to Dyn A and Dyn B. a, Mac-1-expressing and wild-type HEK293 cells were labeled with calcein and 5x10^4 cells were added to the wells coated with different concentrations of the Dyn A. After 30 min at 37 °C, nonadherent cells were removed and fluorescence was measured. The data shown are means of triplicate determinations, and error bars represent S.E. The figure is representative of 8 experiments. b , adhesion of HEK293 cells expressing Mac-1, LFA and the I-less form of Mac-1 to Dyn A and Dyn B immobilized at 10 μM was determined as described in A. c, calcein-labeled Mac-1-HEK293 cells were preincubated without or with 10 μg/ml of anti-αM mAb 44a or 1 μg/ml NIF for 15 minutes. For testing the role of glucosaminoglycans in cell adhesion, dynorphin A-coated wells were preincubated with 100 μl of 10 μg/ml of chondroitin sulfate A, chondroitin sulfate B and heparin. […]\nAdhesion assays were performed essentially as described previously. […] Fluorescence was measured in a CytoFluorII fluorescence plate reader (Perceptive Biosystems, Framingham, MA). […] After aspirating the solution, labeled cells were added and cell adhesion was analyzed as above."}, "[3]": {"tested_on": "U937 monocytic cells", "assay": "Chemotaxis migration assay of U937 cells to Dyn A agarose gel", "format": "cell-based, human", "details": "10 μM Dyn A in agarose", "experimental": "Fig. 7 Chemotactic response of U937 cells to Dyn A. a, schematic representation of the experimental format. U937 cells (5x10^4) were placed in the center of the coverslip between two agar gels, one containing Dyn A and control gel without Dyn A. After 2 h at 37 °C, a series of photographs was taken in the direction of migration at 1-mm intervals to count the number of migrating cells. b , representative images after 2 h of migration show the cells within the starting point (marked with a cross; right panels) and at the border of the Dyn A-containing agar drop (left panels). […] Two bottom panels show the experimental condition with no Dyn A gradient. c, quantification of U937 cells migrated from the initial point after 2 h based on the results shown in A (right panel). Migration of control untreated U937 cells that completely migrated from the initial point of cell placement was assigned a value of 100 %. In contrast, there was no cell migration without a Dyn A gradient (0 %). […] A representative experiment is shown. d, distribution of U937 cells between two gels: Dyn A-containing (on the left) and without Dyn A (on the right). “0” on abscissa corresponds to the initial point where cells were loaded and the numbers show the distance that cells migrated in both directions from the starting point. All cells in each of 10 consecutive fields towards the Dyn A-containing and empty gels were counted and plotted as a distance from the starting point\nChemotaxis assays using U937 monocytic cells were performed on 22 × 22 mm cover slips. 1 % agarose (Life Technologies, Carlsbad, CA) was dissolved in HBSS by heating. After cooling, the agarose solution was mixed with Dyn A to obtain a final concentration of 10 μM. A 10 μl drop of warm agarose solution containing Dyn A was placed at one corner of the cover glass at ~1.5 mm from the edge. A control agarose drop was placed diagonally at the opposite corner of the cover glass. Agarose was allowed to solidify for 5 min, and the cover glasses were placed into wells of the 6-well plate filled with 5 ml of RPMI 1640 + 10 % FBS. A 10-μl aliquot of U937 cells (5x10^4) was loaded in the center of the cover glass and the plate was incubated for 2 h at 37 °C in a humidified atmosphere containing 5 % CO2. In this experimental format, the cells sediment approximately 5 min after loading, forming an ~4 mm circle, and begin to migrate towards the Dyn A-containing agarose drop. […] The photographs were taken at 1-mm intervals in the direction of cell migration towards the dynorphin-containing or control agarose drops without dynorphin A. The number of cells at the starting point and in each of 10 consecutive fields towards the dynorphin-containing and empty gels were counted and plotted as a distance from the starting point."}},
  "data": [
    {"smiles": "CC[C@H](C)[C@H](NC(=O)[C@H](CCCNC(=N)N)NC(=O)[C@H](CCCNC(=N)N)NC(=O)[C@H](CC(C)C)NC(=O)[C@H](Cc1ccccc1)NC(=O)CNC(=O)CNC(=O)[C@@H](N)Cc1ccc(O)cc1)C(=O)N[C@@H](CCCNC(=N)N)C(=O)N1CCC[C@H]1C(=O)N[C@@H](CCCCN)C(=O)N[C@@H](CC(C)C)C(=O)N[C@@H](CCCCN)C(=O)N[C@@H](Cc1c[nH]c2ccccc12)C(=O)N[C@@H](CC(=O)O)C(=O)N[C@@H](CC(N)=O)C(=O)N[C@@H](CCC(N)=O)C(=O)O", "note": "[Dyn A]", "values": [
      {"measurement": "Phagocytosis by mouse peritoneal macrophages", "setting": "[1]", "value": "enhance phagocytosis by mouse peritoneal macrophages"},
      {"measurement": "Adhesion of HEK293 cells expressing the I-less form of Mac-1", "setting": "[2]", "value": "7 ± 1", "unit": "%"},
      {"measurement": "Distance travelled by majority of untreated cells towards Dyn A", "setting": "[3]; 2 h, no inhibitor", "value": "~ 8 mm"},
      {"measurement": "Chemotaxis of U937 cells (in words)", "setting": "[3]; 2 h at 37 °C", "value": "efficiently migrated along the gradient of Dyn A"}
    ]}
  ]
}
